Laboratory results taken from BindingDB's records for doi:10.1016/S0960-894X(96)00248-X (1996).

experiment: Inhibitory activity against gastrin receptor

Point of comparison: `Cc1cccc(NC(=O)NC2N=C(c3ccccc3)c3ccccc3N(CC(=O)NCCCOc3cccc(CN4CCCCC4)c3)C2=O)c1` (stereo not drawn) [2-[2-Oxo-5-phenyl-3-(3-m-tolyl-ureido)-2,3-dihydro-benzo[e][1,4]diazepin-1-yl]-N-[3-(3-piperidin-1-ylmethyl-phenoxy)-propyl]-acetamide], IC50 155 nM. Against it:
- Cc1cccc(NC(=O)NC2N=C(c3ccccc3)c3ccccc3N(CC(=O)NCC(=O)NCCCOc3cccc(CN4CCCCC4)c3)C2=O)c1 (stereo not drawn) [2-[2-Oxo-5-phenyl-3-(3-m-tolyl-ureido)-2,3-dihydro-benzo[e][1,4]diazepin-1-yl]-N-{[3-(3-piperidin-1-ylmethyl-phenoxy)-propylcarbamoyl]-methyl}-acetamide] — 5.1-fold higher, 790 nM
- Cc1cccc(NC(=O)NC2N=C(c3cccc(OCC(=O)NCCCOc4cccc(CN5CCCCC5)c4)c3)c3ccccc3N(C)C2=O)c1 (stereo not drawn) [2-{3-[1-Methyl-2-oxo-3-(3-m-tolyl-ureido)-2,3-dihydro-1H-benzo[e][1,4]diazepin-5-yl]-phenoxy}-N-[3-(3-piperidin-1-ylmethyl-phenoxy)-propyl]-acetamide] — 3.7-fold higher, 570 nM
- Cc1cccc(NC(=O)NC2N=C(c3cccc(OCC(=O)NCC(=O)NCCCOc4cccc(CN5CCCCC5)c4)c3)c3ccccc3N(C)C2=O)c1 (stereo not drawn) [2-{3-[1-Methyl-2-oxo-3-(3-m-tolyl-ureido)-2,3-dihydro-1H-benzo[e][1,4]diazepin-5-yl]-phenoxy}-N-{[3-(3-piperidin-1-ylmethyl-phenoxy)-propylcarbamoyl]-methyl}-acetamide] — 2.5-fold lower, 63 nM
- CN1C(=O)[C@H](NC(=O)Nc2cccc(CC(=O)NCCCOc3cccc(CN4CCCCC4)c3)c2)N=C(c2ccccc2)c2ccccc21 [2-{3-[3-((R)-1-Methyl-2-oxo-5-phenyl-2,3-dihydro-1H-benzo[e][1,4]diazepin-3-yl)-ureido]-phenyl}-N-[3-(3-piperidin-1-ylmethyl-phenoxy)-propyl]-acetamide] — within 1.5-fold, 230 nM
- Cc1cccc(NC(=O)NC2N=C(c3cccc(OCC(=O)NCCC(=O)NCCCOc4cccc(CN5CCCCC5)c4)c3)c3ccccc3N(C)C2=O)c1 (stereo not drawn) [3-(2-{3-[1-Methyl-2-oxo-3-(3-m-tolyl-ureido)-2,3-dihydro-1H-benzo[e][1,4]diazepin-5-yl]-phenoxy}-acetylamino)-N-[3-(3-piperidin-1-ylmethyl-phenoxy)-propyl]-propionamide] — within 1.5-fold, 200 nM
- CN1C(=O)[C@H](NC(=O)Nc2cccc(CC(=O)NCCC(=O)NCCCOc3cccc(CN4CCCCC4)c3)c2)N=C(c2ccccc2)c2ccccc21 [3-(2-{3-[3-((R)-1-Methyl-2-oxo-5-phenyl-2,3-dihydro-1H-benzo[e][1,4]diazepin-3-yl)-ureido]-phenyl}-acetylamino)-N-[3-(3-piperidin-1-ylmethyl-phenoxy)-propyl]-propionamide] — within 1.5-fold, 136 nM
- CN1C(=O)[C@H](NC(=O)Nc2cccc(C(=O)NCCCOc3cccc(CN4CCCCC4)c3)c2)N=C(c2ccccc2)c2ccccc21 [3-[3-((R)-1-Methyl-2-oxo-5-phenyl-2,3-dihydro-1H-benzo[e][1,4]diazepin-3-yl)-ureido]-N-[3-(3-piperidin-1-ylmethyl-phenoxy)-propyl]-benzamide] — 3.5-fold higher, 550 nM
- Cc1cccc(NC(=O)NC2N=C(c3ccccc3)c3ccccc3N(CC(=O)NCCC(=O)NCCCOc3cccc(CN4CCCCC4)c3)C2=O)c1 (stereo not drawn) [3-{2-[2-Oxo-5-phenyl-3-(3-m-tolyl-ureido)-2,3-dihydro-benzo[e][1,4]diazepin-1-yl]-acetylamino}-N-[3-(3-piperidin-1-ylmethyl-phenoxy)-propyl]-propionamide] — within 1.5-fold, 185 nM
- Cc1cccc(NC(=O)NC2N=C(c3cccc(OCC(=O)NCCCC(=O)NCCCOc4cccc(CN5CCCCC5)c4)c3)c3ccccc3N(C)C2=O)c1 (stereo not drawn) [4-(2-{3-[1-Methyl-2-oxo-3-(3-m-tolyl-ureido)-2,3-dihydro-1H-benzo[e][1,4]diazepin-5-yl]-phenoxy}-acetylamino)-N-[3-(3-piperidin-1-ylmethyl-phenoxy)-propyl]-butyramide] — 2.6-fold lower, 60 nM
- CN1C(=O)[C@H](NC(=O)Nc2cccc(CC(=O)NCCCC(=O)NCCCOc3cccc(CN4CCCCC4)c3)c2)N=C(c2ccccc2)c2ccccc21 [4-(2-{3-[3-((R)-1-Methyl-2-oxo-5-phenyl-2,3-dihydro-1H-benzo[e][1,4]diazepin-3-yl)-ureido]-phenyl}-acetylamino)-N-[3-(3-piperidin-1-ylmethyl-phenoxy)-propyl]-butyramide] — within 1.5-fold, 115 nM
- Cc1cccc(NC(=O)NC2N=C(c3ccccc3)c3ccccc3N(CC(=O)NCCCC(=O)NCCCOc3cccc(CN4CCCCC4)c3)C2=O)c1 (stereo not drawn) [4-{2-[2-Oxo-5-phenyl-3-(3-m-tolyl-ureido)-2,3-dihydro-benzo[e][1,4]diazepin-1-yl]-acetylamino}-N-[3-(3-piperidin-1-ylmethyl-phenoxy)-propyl]-butyramide] — within 1.5-fold, 210 nM
- Cc1cccc(NC(=O)NC2N=C(c3cccc(OCC(=O)NCCCCCC(=O)NCCCOc4cccc(CN5CCCCC5)c4)c3)c3ccccc3N(C)C2=O)c1 (stereo not drawn) [6-(2-{3-[1-Methyl-2-oxo-3-(3-m-tolyl-ureido)-2,3-dihydro-1H-benzo[e][1,4]diazepin-5-yl]-phenoxy}-acetylamino)-hexanoic acid [3-(3-piperidin-1-ylmethyl-phenoxy)-propyl]-amide] — 4.8-fold lower, 32 nM
- CN1C(=O)[C@H](NC(=O)Nc2cccc(CC(=O)NCCCCCC(=O)NCCSCc3csc(N=C(N)N)n3)c2)N=C(c2ccccc2)c2ccccc21 [6-(2-{3-[3-((R)-1-Methyl-2-oxo-5-phenyl-2,3-dihydro-1H-benzo[e][1,4]diazepin-3-yl)-ureido]-phenyl}-acetylamino)-hexanoic acid [2-(2-guanidino-thiazol-4-ylmethylsulfanyl)-ethyl]-amide] — 3.4-fold lower, 45 nM
- CN1C(=O)[C@H](NC(=O)Nc2cccc(CC(=O)NCCCCCC(=O)NCCCOc3cccc(CN4CCCCC4)c3)c2)N=C(c2ccccc2)c2ccccc21 [6-(2-{3-[3-((R)-1-Methyl-2-oxo-5-phenyl-2,3-dihydro-1H-benzo[e][1,4]diazepin-3-yl)-ureido]-phenyl}-acetylamino)-hexanoic acid [3-(3-piperidin-1-ylmethyl-phenoxy)-propyl]-amide] — within 1.5-fold, 110 nM
- Cc1cccc(NC(=O)NC2N=C(c3ccccc3)c3ccccc3N(CC(=O)NCCCCCC(=O)NCCCOc3cccc(CN4CCCCC4)c3)C2=O)c1 (stereo not drawn) [6-{2-[2-Oxo-5-phenyl-3-(3-m-tolyl-ureido)-2,3-dihydro-benzo[e][1,4]diazepin-1-yl]-acetylamino}-hexanoic acid [3-(3-piperidin-1-ylmethyl-phenoxy)-propyl]-amide] — 9.7-fold lower, 16 nM
- Cc1cccc(NC(=O)NC2N=C(c3ccccc3)c3ccccc3N(CC(=O)NCCSCc3csc(N=C(N)N)n3)C2=O)c1 (stereo not drawn) [N-[2-(2-Guanidino-thiazol-4-ylmethylsulfanyl)-ethyl]-2-[2-oxo-5-phenyl-3-(3-m-tolyl-ureido)-2,3-dihydro-benzo[e][1,4]diazepin-1-yl]-acetamide] — 52-fold lower, 3 nM
- Cc1cccc(NC(=O)NC2N=C(c3cccc(OCC(=O)NCCSCc4csc(N=C(N)N)n4)c3)c3ccccc3N(C)C2=O)c1 (stereo not drawn) [N-[2-(2-Guanidino-thiazol-4-ylmethylsulfanyl)-ethyl]-2-{3-[1-methyl-2-oxo-3-(3-m-tolyl-ureido)-2,3-dihydro-1H-benzo[e][1,4]diazepin-5-yl]-phenoxy}-acetamide] — within 1.5-fold, 135 nM
